{
  "source": "ChEMBL document CHEMBL3885881",
  "about": "“DrugMatrix”",
  "species_on_record": "Rattus norvegicus",
  "experiment": "DrugMatrix - Regimen: Daily Repeat",
  "assay_type": "toxicity, organism-based, Sprague-Dawley",
  "parameters": "regimen Daily Repeat, gender Male, age 6-8 weeks",
  "conditions": "in vivo, iv, vehicle 100 % SALINE; for TOTAL PROTEIN / URIC ACID / ALANINE AMINOTRANSFERASE / ALBUMIN / ALKALINE PHOSPHATASE / ASPARTATE AMINOTRANSFERASE / BLOOD UREA NITROGEN / CARBON DIOXIDE / CHLORIDE / CHOLESTEROL / CREATINE PHOSPHOKINASE / CREATININE / GLUCOSE / LACTATE DEHYDROGENASE / LIPASE / PHOSPHORUS / POTASSIUM / SODIUM / TOTAL BILIRUBIN: tissue Plasma; for ABSOLUTE BASOPHIL / ABSOLUTE EOSINOPHIL / ABSOLUTE LYMPHOCYTE / ABSOLUTE MONOCYTE / ABSOLUTE SEGMENTED NEUTROPHIL / BASOPHIL / EOSINOPHIL / ERYTHROCYTE COUNT / HEMATOCRIT / HEMOGLOBIN / LEUKOCYTE COUNT / LYMPHOCYTE / MEAN CORPUSCULAR HEMOGLOBIN / MEAN CORPUSCULAR HEMOGLOBIN CONCENTRATION / MEAN CORPUSCULAR VOLUME / MONOCYTE / NEUTROPHIL / NUCLEATED RED BLOOD CELLS / PLATELET COUNT: tissue Blood",
  "key": {"[1]": {"conditions": "41 mg/kg, 120 h, dose level High, time 5 day"}, "[2]": {"conditions": "[…], 72 h, dose 4.1 mg/Kg, dose level Low, time 3 day"}, "[3]": {"conditions": "[…], 120 h, dose 4.1 mg/Kg, dose level Low, time 5 day"}},
  "data": [
    {"smiles": "CCN[C@@H]1C[C@H](N)[C@@H](O[C@H]2OC(CN)=CC[C@H]2N)[C@H](O)[C@H]1O[C@H]1OC[C@](C)(O)[C@H](NC)[C@H]1O", "note": "[NETILMICIN]", "values": [
      {"measurement": "TOTAL PROTEIN", "setting": "[1]", "value": 6.23, "unit": "G/DL"},
      {"measurement": "URIC ACID", "setting": "[1]", "value": 1.8, "unit": "mg/dL"},
      {"measurement": "ABSOLUTE BASOPHIL", "setting": "[2]", "value": 0, "unit": "CELLS/uL"},
      {"measurement": "ABSOLUTE EOSINOPHIL", "setting": "[2]", "value": 0, "unit": "CELLS/uL"},
      {"measurement": "ABSOLUTE LYMPHOCYTE", "setting": "[2]", "value": 4768, "unit": "CELLS/uL"},
      {"measurement": "ABSOLUTE MONOCYTE", "setting": "[2]", "value": 54, "unit": "CELLS/uL"},
      {"measurement": "ABSOLUTE SEGMENTED NEUTROPHIL", "setting": "[2]", "value": 578, "unit": "CELLS/uL"},
      {"measurement": "BASOPHIL", "setting": "[2]", "value": 0, "unit": "%"},
      {"measurement": "EOSINOPHIL", "setting": "[2]", "value": 0, "unit": "%"},
      {"measurement": "ERYTHROCYTE COUNT", "setting": "[2]", "value": 5.02, "unit": "x10E6/uL"},
      {"measurement": "HEMATOCRIT", "setting": "[2]", "value": 31.53, "unit": "%"},
      {"measurement": "HEMOGLOBIN", "setting": "[2]", "value": 12.37, "unit": "G/DL"},
      {"measurement": "LEUKOCYTE COUNT", "setting": "[2]", "value": 5.4, "unit": "x10E3/uL"},
      {"measurement": "LYMPHOCYTE", "setting": "[2]", "value": 88.33, "unit": "%"},
      {"measurement": "MEAN CORPUSCULAR HEMOGLOBIN", "setting": "[2]", "value": 24.67, "unit": "pg"},
      {"measurement": "MEAN CORPUSCULAR HEMOGLOBIN CONCENTRATION", "setting": "[2]", "value": 39.23, "unit": "G/DL"},
      {"measurement": "MEAN CORPUSCULAR VOLUME", "setting": "[2]", "value": 62.83, "unit": "fL"},
      {"measurement": "MONOCYTE", "setting": "[2]", "value": 1, "unit": "%"},
      {"measurement": "NEUTROPHIL", "setting": "[2]", "value": 10.67, "unit": "%"},
      {"measurement": "NUCLEATED RED BLOOD CELLS", "setting": "[2]", "value": "0.33 /100WBC"},
      {"measurement": "PLATELET COUNT", "setting": "[2]", "value": 1171, "unit": "x10E3/uL"},
      {"measurement": "ALANINE AMINOTRANSFERASE", "setting": "[2]", "value": 52.33, "unit": "u/L"},
      {"measurement": "ALBUMIN", "setting": "[2]", "value": 4.23, "unit": "G/DL"},
      {"measurement": "ALKALINE PHOSPHATASE", "setting": "[2]", "value": 370.33, "unit": "u/L"},
      {"measurement": "ASPARTATE AMINOTRANSFERASE", "setting": "[2]", "value": 91.67, "unit": "u/L"},
      {"measurement": "BLOOD UREA NITROGEN", "setting": "[2]", "value": 16, "unit": "mg/dL"},
      {"measurement": "CARBON DIOXIDE", "setting": "[2]", "value": 33.67, "unit": "mmol/L"},
      {"measurement": "CHLORIDE", "setting": "[2]", "value": 99.33, "unit": "MEQ/L"},
      {"measurement": "CHOLESTEROL", "setting": "[2]", "value": 62, "unit": "mg/dL"},
      {"measurement": "CREATINE PHOSPHOKINASE", "setting": "[2]", "value": 447.67, "unit": "u/L"},
      {"measurement": "CREATININE", "setting": "[2]", "value": 0.17, "unit": "mg/dL"},
      {"measurement": "GLUCOSE", "setting": "[2]", "value": 154, "unit": "mg/dL"},
      {"measurement": "LACTATE DEHYDROGENASE", "setting": "[2]", "value": 115.33, "unit": "u/L"},
      {"measurement": "LIPASE", "setting": "[2]", "value": 9.33, "unit": "u/L"},
      {"measurement": "PHOSPHORUS", "setting": "[2]", "value": 10.83, "unit": "mg/dL"},
      {"measurement": "POTASSIUM", "setting": "[2]", "value": 6.02, "unit": "MEQ/L"},
      {"measurement": "SODIUM", "setting": "[2]", "value": 143.23, "unit": "MEQ/L"},
      {"measurement": "TOTAL BILIRUBIN", "setting": "[2]", "value": 0.23, "unit": "mg/dL"},
      {"measurement": "TOTAL PROTEIN", "setting": "[2]", "value": 6.03, "unit": "G/DL"},
      {"measurement": "URIC ACID", "setting": "[2]", "value": 0.8, "unit": "mg/dL"},
      {"measurement": "ABSOLUTE BASOPHIL", "setting": "[3]", "value": 0, "unit": "CELLS/uL"},
      {"measurement": "ABSOLUTE EOSINOPHIL", "setting": "[3]", "value": 0, "unit": "CELLS/uL"},
      {"measurement": "ABSOLUTE LYMPHOCYTE", "setting": "[3]", "value": 13577.67, "unit": "CELLS/uL"},
      {"measurement": "ABSOLUTE MONOCYTE", "setting": "[3]", "value": 137, "unit": "CELLS/uL"},
      {"measurement": "ABSOLUTE SEGMENTED NEUTROPHIL", "setting": "[3]", "value": 1018.67, "unit": "CELLS/uL"},
      {"measurement": "BASOPHIL", "setting": "[3]", "value": 0, "unit": "%"},
      {"measurement": "EOSINOPHIL", "setting": "[3]", "value": 0, "unit": "%"},
      {"measurement": "ERYTHROCYTE COUNT", "setting": "[3]", "value": 5.81, "unit": "x10E6/uL"},
      {"measurement": "HEMATOCRIT", "setting": "[3]", "value": 36.13, "unit": "%"},
      {"measurement": "HEMOGLOBIN", "setting": "[3]", "value": 14.33, "unit": "G/DL"},
      {"measurement": "LEUKOCYTE COUNT", "setting": "[3]", "value": 14.73, "unit": "x10E3/uL"},
      {"measurement": "LYMPHOCYTE", "setting": "[3]", "value": 92, "unit": "%"},
      {"measurement": "MEAN CORPUSCULAR HEMOGLOBIN", "setting": "[3]", "value": 24.7, "unit": "pg"},
      {"measurement": "MEAN CORPUSCULAR HEMOGLOBIN CONCENTRATION", "setting": "[3]", "value": 39.7, "unit": "G/DL"},
      {"measurement": "MEAN CORPUSCULAR VOLUME", "setting": "[3]", "value": 62.17, "unit": "fL"},
      {"measurement": "MONOCYTE", "setting": "[3]", "value": 1, "unit": "%"},
      {"measurement": "NEUTROPHIL", "setting": "[3]", "value": 7, "unit": "%"},
      {"measurement": "NUCLEATED RED BLOOD CELLS", "setting": "[3]", "value": "0 /100WBC"},
      {"measurement": "PLATELET COUNT", "setting": "[3]", "value": 1276.33, "unit": "x10E3/uL"},
      {"measurement": "ALANINE AMINOTRANSFERASE", "setting": "[3]", "value": 46.33, "unit": "u/L"},
      {"measurement": "ALBUMIN", "setting": "[3]", "value": 4.3, "unit": "G/DL"},
      {"measurement": "ALKALINE PHOSPHATASE", "setting": "[3]", "value": 383.33, "unit": "u/L"},
      {"measurement": "ASPARTATE AMINOTRANSFERASE", "setting": "[3]", "value": 80.67, "unit": "u/L"},
      {"measurement": "BLOOD UREA NITROGEN", "setting": "[3]", "value": 16, "unit": "mg/dL"},
      {"measurement": "CARBON DIOXIDE", "setting": "[3]", "value": 31.67, "unit": "mmol/L"},
      {"measurement": "CHLORIDE", "setting": "[3]", "value": 101.33, "unit": "MEQ/L"},
      {"measurement": "CHOLESTEROL", "setting": "[3]", "value": 83.33, "unit": "mg/dL"},
      {"measurement": "CREATINE PHOSPHOKINASE", "setting": "[3]", "value": 216.67, "unit": "u/L"},
      {"measurement": "CREATININE", "setting": "[3]", "value": 0.17, "unit": "mg/dL"},
      {"measurement": "GLUCOSE", "setting": "[3]", "value": 166.33, "unit": "mg/dL"},
      {"measurement": "LACTATE DEHYDROGENASE", "setting": "[3]", "value": 180, "unit": "u/L"},
      {"measurement": "LIPASE", "setting": "[3]", "value": 9.33, "unit": "u/L"},
      {"measurement": "PHOSPHORUS", "setting": "[3]", "value": 13.33, "unit": "mg/dL"},
      {"measurement": "POTASSIUM", "setting": "[3]", "value": 7.09, "unit": "MEQ/L"},
      {"measurement": "SODIUM", "setting": "[3]", "value": 145.07, "unit": "MEQ/L"},
      {"measurement": "TOTAL BILIRUBIN", "setting": "[3]", "value": 0.13, "unit": "mg/dL"},
      {"measurement": "TOTAL PROTEIN", "setting": "[3]", "value": 6.3, "unit": "G/DL"},
      {"measurement": "URIC ACID", "setting": "[3]", "value": 1.93, "unit": "mg/dL"}
    ]}
  ]
}
